Data: patent publication US20100160297A1, “COMPOUNDS FOR PIM KINASE INHIBITION AND FOR TREATING MALIGNANCY” (Amnestix, Inc., priority 2008, published 2010)
Entries after “also recorded” stand apart in the source; their conditions may differ. Where a name gives a salt, the structure may show the parent alone.

Assays:
PIM-1 kinase = biological target: T1, PIM-1 kinase (Homo sapiens, UniProt P11309); assay: In vitro assay for PIM-1 kinase inhibition (PIM-1 Kinase Assay Kit, colorimetric ELISA); assay type: biochemical; settings: for PIM-1 kinase inhibition (result in words): test compound 0.1 to 100 μM, FIG. 1 (1.5 ng PIM-1) and FIG. 2 (2.5 ng PIM-1)
T1 construct: purchased Cell Signaling Technology Inc., Boston, USA
Method: (§1) In vitro assays of PIM-1 kinase activity (1.5 ng) in the presence of increasing concentrations of the compounds A, B, C or D were performed as described within example 5. An assay without additional test compound served as positive control for the assay (pos) and an assay without PIM-1 kinase served as negative assay (neg). […] Each assay result was normalized in comparison to the positive control which was defined as 100% activity.
as §1, with “(2.5” for “(1.5”, “compound E” for “compounds A, B, C or D”
The in vitro assay for PIM-1 kinase inhibition was performed using the PIM-1 Kinase Assay Kit (Cell Signaling Technology Inc., Boston, USA) according to the manufacture's instruction. Briefly, 1.5 or 2.5 ng PIM-1 kinase has been dissolved in 50 μl assay buffer (25 mM Tris-Hcl (pH 7.5), 10 mM MgCl2, 5 mM beta-glycerophosphate, 0.1 mM Na3VO4, 2 mM DTT, 200 μM ATP, and 1.5 μM peptide substrate) and test compound has been added to a final concentration in a range of 0.1 to 100 μM. After 30 minutes incubation at ambient temperature the reaction was stopped by adding 50 μl Stop buffer (50 mM EDTA, pH 8) per reaction. An aliquot of 25 μl per reaction was diluted each by 75 μl water and transferred to a 96-well streptavidin-coated plate. After 60 minutes incubation and three times washing with PBS, 100 μl/well primary antibody (Phospho-Bad (Ser112) antibody, 1:1000 diluted in PBS) was added. After further 2 h incubation and three times washing with PBS, an usual colorimetric ELISA assay was performed using a HRP labeled second antibody according to the manufacture's instructions. A PIM kinase reaction without addition of a test compound served as positive control (pos) and an assay without PIM kinase served as negative control (neg). […] The PIM-1 kinase inhibition of the test compounds (1-chloro-5-([1,4]diazepane-1-sulfonyl)-8-propoxy-isoquinoline (compound A), 1-chloro-5-(piperazin-1-sulfonyl)-8-methoxy-isoquinoline (compound B), 1-methyl-5-([1,4]diazepane-1-sulfonyl)-8-methoxy-isoquinoline (compound C), and 1-chloro-5-([1,4]diazepane-1-sulfonyl)-6-methoxy-isoquinoline (compound D)) was measured in a first series of assays, and the one of the compound 5-([1,4]diazepane-1-sulfonyl)-8-methoxy-isoquinoline (compound E) was measured in a second series of assays. Within each series of assays the measured PIM-1 kinase activity was normalized in comparison to the positive control (pos) which was defined as 100% activity. […] The table below summarizes the percentage of the remaining PIM-1 kinase activity in the presence of the test compounds in a final concentration of 100 μM.

T1 sequence (P11309 whole entry): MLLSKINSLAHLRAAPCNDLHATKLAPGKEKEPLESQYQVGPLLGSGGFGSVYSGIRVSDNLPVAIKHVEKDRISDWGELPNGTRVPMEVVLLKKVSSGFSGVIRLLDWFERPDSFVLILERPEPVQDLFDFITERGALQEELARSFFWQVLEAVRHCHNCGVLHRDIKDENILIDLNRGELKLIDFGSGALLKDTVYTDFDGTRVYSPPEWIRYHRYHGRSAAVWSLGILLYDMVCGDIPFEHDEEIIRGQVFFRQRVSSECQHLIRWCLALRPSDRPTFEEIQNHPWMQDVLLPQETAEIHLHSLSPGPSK

melting point [°C] | % remaining PIM-1 kinase activity (PIM-1 kinase; test compound 100 μM final concentration, normalized to positive control (no test compound) = 100% activity, 1.5 or 2.5 ng PIM-1 kinase, 200 μM ATP) [%] | SMILES | PIM-1 kinase inhibition (result in words) (PIM-1 kinase)
219 to 221 | – | COc1ccc2c(Cl)nccc2c1S(=O)(=O)N1CCCNCC1 (as salt: hydrochloride) [1-chloro-5-([1,4]diazepane-1-sulfonyl)-6-methoxy-isoquinoline] | –
– | – | COc1ccc(S(=O)(=O)N2CCNCC2)c2ccnc(Cl)c12 [B, 1-chloro-5-(piperazin-1-sulfonyl)-8-methoxy-isoquinoline] | potent PIM inhibitory effect; also recorded: potent PIM-1 kinase inhibitors
– | – | COc1ccc(S(=O)(=O)N2CCCNCC2)c2ccnc(C)c12 [C, 1-methyl-5-([1,4]diazepane-1-sulfonyl)-8-methoxy-isoquinoline] | potent PIM inhibitory effect; also recorded: potent PIM-1 kinase inhibitors
– | – | CCCOc1ccc(S(=O)(=O)N2CCCNCC2)c2ccnc(Cl)c12 [Compound A, 1-chloro-5-([1,4]diazepane-1-sulfonyl)-8-propoxy-isoquinoline] | potent PIM inhibitory effect; also recorded: potent PIM-1 kinase inhibitors
– | – | COc1ccc2c(Cl)nccc2c1S(=O)(=O)N1CCCNCC1 [D, 1-chloro-5-([1,4]diazepane-1-sulfonyl)-6-methoxy-isoquinoline] | potent PIM inhibitory effect; also recorded: potent PIM-1 kinase inhibitors
– | – | COc1ccc(S(=O)(=O)N2CCCNCC2)c2ccncc12 [E, 5-([1,4]diazepane-1-sulfonyl)-8-methoxy-isoquinoline] | at most a moderate PIM-1 kinase inhibition; also recorded: only weak PIM inhibitory effect
– | – | O=S(=O)(c1cccc2cnccc12)N1CCCNCC1 [F, Fasudil, reference compound] | at the most very weak PIM-1 inhibition
– | 17 | COc1ccc(S(=O)(=O)N2CCCNCC2)c2ccnc(Cl)c12 [G, 1-chloro-8-methoxy-Fasudil, reference compound] | very potent PIM-1 inhibitor
